# No end group written: not given here.
# Tested on: antiserum anti-IIINys (polyclonal, directed against SEQ ID No. 2)
# Experiment: Competitive ELISA, specificity of the antiserum anti IIINys vis-à-vis different peptides
# Format: binding, rabbit
# Conditions: biotinylated IIINys coated on plate, competitor peptide in solution
# Experimental: FIG. 4 illustrates the specificity of the polyclonal antibodies prepared vis-à-vis the IIINys, with respect to other synthetic peptides. B/B0 represents the ratio between the quantity of anti-IIINys antibodies fixed to the antigen fixed (“coated”) onto the plate in the presence of competitor compound (B) and in the absence of competitor compound (B0).
# Rabbits were injected by intra-peritoneal route with the peptide conjugated to KLH emulsified with Freund's complete adjuvant. This operation was repeated 3 times over three months using the same peptide with Freund's incomplete adjuvant. After each injection a sample of rabbit blood was taken. This blood was left to coagulate for 30 minutes and the whole sample was centrifuged for 10 minutes at 2500 rpm in order to recover the serum. Ten days after the last injection, the rabbits were sacrificed and all the blood was recovered. Each serum sample was titrated by ELISA technique in the presence of the synthetic peptide. The antiserum with the best titre was selected for the finalization of the competitive ELISA (Harlow and Lane, 1988a).
# The peptide conjugated to the biotin diluted with the coating buffer is adsorbed on plates avidinated for 2 hours at ambient temperature. After washing, 50 μl of antisera diluted to the optimum titre are added to 50 μl of standard (synthetic peptide diluted in buffer) or to 50 μl of samples to be assayed and are left to incubate overnight at 4° C. After washing, 100 μl of secondary antibodies coupled to the peroxidase directed against the rabbit immunoglobulins are added over one hour at ambient temperature. The wells are washed and 100 μl of substrate (TMB) are added. The reaction is stopped with 100 μl of H2SO4.
# The antiserum selected was tested vis-à-vis different peptides according to the ELISA method described previously in order to verify its specificity (FIG. 4). The peptides tested are: the peptide IIINys of sequence SEQ ID No. 2 (the immunogenic peptide), the peptide of sequence SEQ ID No. 3 (the peptide IIINys with only the first tyrosine nitrosylated), the peptide of sequence SEQ ID No. 4 (the peptide IIINys with only the second tyrosine nitrosylated), the peptide of sequence SEQ ID No. 9 (the peptide IIINys with an additional amino acid on the N-terminal side), the peptide of sequence SEQ ID No. 8 (the peptide IIINys with its tyrosines non nytrosylated), 3-nitrotyrosine (FIG. 2), with the nitrosylated BSA of sequence SEQ ID No. 11.
row,Compound,"competition with the peptide IIINys (SEQ ID No. 2) adsorbed on the plate for the antiserum (B/B0, FIG. 4)"
1,"QYDSYDVKSG [SEQ ID No. 8, the peptide IIINys with its tyrosines non nitrosylated]",not capable of entering into competition
2,"QYDSY*DVKSG [SEQ ID No. 4, the peptide IIINys with only the second tyrosine nitrosylated]",less affinity than for the peptide IIINys
3,"PQY*DSY*DVKSG (PQYDSYDVKSG; not fully specified (residues 3, 6); printed as PQY*DSY*DVKSG) [SEQ ID No. 9, the peptide IIINys with an additional amino acid on the N-terminal side, reference compound]",not capable of entering into competition
4,"QY*DSYDVKSG [SEQ ID No. 3, the peptide IIINys with only the first tyrosine nitrosylated]",less affinity than for the peptide IIINys
5,"N[C@@H](Cc1ccc(O)c([N+](=O)[O-])c1)C(=O)O [3-nitrotyrosine, reference compound]",not capable of entering into competition

# Source: patent publication US20100233737A1, “MARKER SPECIFIC TO AN OXIDATIVE DEGRADATION OF TISSUES CONTAINING TYPE III COLLAGEN, MEANS AND METHODS AND KITS FOR THE DIAGNOSIS, MONITORING OR PROGNOSIS OF PATHOLOGIES TARGETED BY THIS MARKER” (priority 2006, published 2010)
